Source: patent US12391799B2, “Peptoid polymers and methods of use” (X-Therma, Inc., priority 2017, dated 2025)
Numbered stars: 1 amine (or outer) side, 2 acyl side, 3 side chain; on linkers, the order of the positions; unused ones are H or OH. Square brackets hold non-standard residues; d marks the D form. Peptide text beside a SMILES is read from it. X1 = CC(O)CN(CC(=O)[*:2])[*:1]; N(iPr)Gly = CC(C)NCC(=O)O; NBuGly = CCCCNCC(=O)O; Nleu = CC(C)CNCC(=O)O

Experiment: Vitrification screening assay (critical EG concentration)
Assay type: physicochemical
Conditions: for Critical Ethylene Glycol Concentration: lowest EG for complete vitrification of 20 μL sample, 5 mg/mL peptoid in formulation, liquid nitrogen immersion; for EG required to permit vitrification: 20 μL sample, 5 mg/mL peptoid, formulation without peptoid needs 20% or more EG
Description: As another means of increasing the throughput of library analysis, a vitrification screening assay was performed to evaluate anti-icing efficacy. For these experiments the compounds named “Compound 11,” “Compound 12,” “Compound 25,” Compound 26,” “Compound 27,” “Compound 28,” “Compound 60,” “Compound 62,” “Compound 63,” “Compound 64,” “Compound 69,” “Compound 70,” “Compound 71,” “Compound 72,” “Compound 73,” “Compound 74,” “Compound 75,” “Compound 76,” “Compound 77,” “Compound 78,” “Compound 81,” “Compound 82,” “Compound 83,” “Compound 84,” and “Compound 85” were tested.
For these experiments, 20 μL samples were flash frozen by liquid immersion in liquid nitrogen. Ethylene glycol (EG) concentrations between 5% and 25% (v/v) were used. A concentration of 5 mg/mL of peptoid polymer compounds were used in formulation. Table 12 lists the lowest concentration of EG necessary to bring about complete vitrification of a 20 μL sample with peptoid polymer in formulation, referred to as the “critical EG concentration.” A sample of formulation without the presence of a peptoid polymer was only able to bring about vitrification at 20% or more EG. Peptoid polymers of interest were able to bring about vitrification within formulas containing EG when the concentration of EG was lower than 20%.

SMILES	Critical Ethylene Glycol Concentration	EG required to permit vitrification
CCC(C)NCC(=O)N(CC(=O)N(CC(=O)N(CC(=O)N(CC(=O)N(CC(=O)N(CC(=O)N(CC(=O)N(CC(=O)N(CC(N)=O)C(C)CC)C(C)CC)CC(C)O)CC(C)O)C(C)CC)C(C)CC)CC(C)O)C(C)CC)C(C)CC (stereo not drawn) [Compound 72, Nsb-Nsb-Nsb-Nhp-Nsb-Nsb-Nhp-Nhp-Nsb-Nsb]	17.5% (ν/ν)	–
CCC(C)NCC(=O)N(CC(=O)N(CC(=O)N(CC(=O)N(CC(=O)N(CC(=O)N(CC(=O)N(CC(=O)N(CC(=O)N(CC(N)=O)C(C)CC)C(C)CC)CC(C)O)CC(C)O)C(C)CC)C(C)CC)C(C)CC)CC(C)O)C(C)CC (stereo not drawn) [Compound 71, Nsb-Nsb-Nhp-Nsb-Nsb-Nsb-Nhp-Nhp-Nsb-Nsb]	17.5% (ν/ν)	–
CCC(C)NCC(=O)N(CC(=O)N(CC(=O)N(CC(=O)N(CC(=O)N(CC(=O)N(CC(=O)N(CC(=O)N(CC(=O)N(CC(=O)N(CC(=O)N(CC(=O)N(CC(=O)N(CC(N)=O)C(C)CC)C(C)CC)CC(C)O)CC(C)O)C(C)CC)C(C)CC)CC(C)O)CC(C)O)C(C)CC)C(C)CC)CC(C)O)CC(C)O)C(C)CC (stereo not drawn) [Compound 83, Nsb-Nsb-Nhp-Nhp-Nsb-Nsb-Nhp-Nhp-Nsb-Nsb-Nhp-Nhp-Nsb-Nsb]	10.0% (ν/ν)	required significantly less EG in order to permit vitrification
CC(C)CNCC(=O)N(CC(=O)N(CC(=O)N(CC(=O)N(CC(=O)N(CC(=O)N(CC(=O)N(CC(=O)N(CC(=O)N(CC(N)=O)CC(C)C)CC(C)C)CC(C)O)CC(C)O)CC(C)C)CC(C)C)CC(C)O)CC(C)O)CC(C)C (stereo not drawn) [Compound 25, Nib-Nib-Nhp-Nhp-Nib-Nib-Nhp-Nhp-Nib-Nib] (H-[Nleu][Nleu][X1][X1][Nleu][Nleu][X1][X1][Nleu][Nleu]-NH2)	12.5% (ν/ν)	–
CCC(C)NCC(=O)N(CC(=O)N(CC(=O)N(CC(=O)N(CC(=O)N(CC(N)=O)C(C)CC)C(C)CC)CC(C)O)CC(C)O)C(C)CC (stereo not drawn) [Compound 81, Nsb-Nsb-Nhp-Nhp-Nsb-Nsb]	15.0% (ν/ν)	–
CCC(C)N(CC(N)=O)C(=O)CN(C(=O)CN(CC(C)O)C(=O)CN(CC(C)O)C(=O)CN(C(=O)CN(C(=O)CN(CC(C)O)C(=O)CNCC(C)O)C(C)CC)C(C)CC)C(C)CC (stereo not drawn) [Compound 82, Nhp-Nhp-Nsb-Nsb-Nhp-Nhp-Nsb-Nsb]	12.5% (ν/ν)	required significantly less EG in order to permit vitrification
CCC(C)N(CC(=O)N(CC(=O)N(CC(=O)N(CC(=O)N(CC(=O)N(CC(=O)N(CC(=O)N(CC(=O)N(CC(=O)N(CC(N)=O)C(C)CC)C(C)CC)CC(C)O)CC(C)O)C(C)CC)C(C)CC)CC(C)O)CC(C)O)C(C)CC)C(C)=O (stereo not drawn) [Compound 60, Ac-Nsb-Nsb-Nhp-Nhp-Nsb-Nsb-Nhp-Nhp-Nsb-Nsb]	12.5% (ν/ν)	required significantly less EG in order to permit vitrification
CCCCNCC(=O)N(CCCC)CC(=O)N(CC(=O)N(CC(=O)N(CCCC)CC(=O)N(CCCC)CC(=O)N(CC(=O)N(CC(=O)N(CCCC)CC(=O)N(CCCC)CC(N)=O)CC(C)O)CC(C)O)CC(C)O)CC(C)O (stereo not drawn) [Compound 26, Nbu-Nbu-Nhp-Nhp-Nbu-Nbu-Nhp-Nhp-Nbu-Nbu] (H-[NBuGly][NBuGly][X1][X1][NBuGly][NBuGly][X1][X1][NBuGly][NBuGly]-NH2)	15.0% (ν/ν)	–
CC(O)CN(CC(=O)N(CC(=O)N(CC(=O)N(CC(=O)N(CC(=O)N(CC(=O)N(CC(=O)N(CC(N)=O)C(C)C)C(C)C)CC(C)O)CC(C)O)C(C)C)C(C)C)CC(C)O)C(=O)CN(C(=O)CNC(C)C)C(C)C (stereo not drawn) [Compound 28, Nip-Nip-Nhp-Nhp-Nip-Nip-Nhp-Nhp-Nip-Nip] (H-[N(iPr)Gly][N(iPr)Gly][X1][X1][N(iPr)Gly][N(iPr)Gly][X1][X1][N(iPr)Gly][N(iPr)Gly]-NH2)	15.0% (ν/ν)	–
CCC(C)NCC(=O)N(CC(=O)N(CC(=O)N(CC(=O)N(CC(=O)N(CC(=O)N(CC(=O)N(CC(=O)N(CC(=O)N(CC(N)=O)C(C)CC)C(C)CC)Cc1ccco1)Cc1ccco1)C(C)CC)C(C)CC)Cc1ccco1)Cc1ccco1)C(C)CC (stereo not drawn) [Compound 73, Nsb-Nsb-Nff-Nff-Nsb-Nsb-Nff-Nff-Nsb-Nsb]	20.0% (ν/ν)	–
CCC(C)NCC(=O)N(CC(=O)N(CC(=O)N(CC(=O)N(CC(=O)N(CC(=O)N(CC(=O)N(CC(=O)N(CC(=O)N(CC(N)=O)C(C)CC)C(C)CC)CC(C)O)C(C)CC)C(C)CC)C(C)CC)CC(C)O)CC(C)O)C(C)CC (stereo not drawn) [Compound 70, Nsb-Nsb-Nhp-Nhp-Nsb-Nsb-Nsb-Nhp-Nsb-Nsb]	15.0% (ν/ν)	–
CCC(C)NCC(=O)N(CC(=O)N(CC(=O)N(CC(=O)N(CC(=O)N(CC(=O)N(CC(=O)N(CC(=O)N(CC(=O)N(CC(N)=O)C(C)CC)C(C)CC)CC1CCCO1)CC1CCCO1)C(C)CC)C(C)CC)CC1CCCO1)CC1CCCO1)C(C)CC (stereo not drawn) [Compound 63, Nsb-Nsb-Ntf-Ntf-Nsb-Nsb-Ntf-Ntf-Nsb-Nsb]	15.0% (ν/ν)	–
CCC(C)NCC(=O)N(CC(=O)N(CC(=O)N(CC(=O)N(CC(=O)N(CC(=O)N(CC(=O)N(CC(=O)N(CC(=O)N(CC(N)=O)C(C)CC)C(C)CC)C(C)CC)CC(C)O)C(C)CC)C(C)CC)CC(C)O)CC(C)O)C(C)CC (stereo not drawn) [Compound 69, Nsb-Nsb-Nhp-Nhp-Nsb-Nsb-Nhp-Nsb-Nsb-Nsb]	15.0% (ν/ν)	–
CC[C@@H](C)NCC(=O)N(CC(=O)N(CC(=O)N(CC(=O)N(CC(=O)N(CC(=O)N(CC(=O)N(CC(=O)N(CC(=O)N(CC(N)=O)[C@H](C)CC)[C@H](C)CC)C[C@@H](C)O)C[C@@H](C)O)[C@H](C)CC)[C@H](C)CC)C[C@@H](C)O)C[C@@H](C)O)[C@H](C)CC [Compound 77, Nbr-Nbr-Nrh-Nrh-Nbr-Nbr-Nrh-Nrh-Nbr-Nbr]	15.0% (ν/ν)	–
CC[C@@H](C)NCC(=O)N(CC(=O)N(CC(=O)N(CC(=O)N(CC(=O)N(CC(=O)N(CC(=O)N(CC(=O)N(CC(=O)N(CC(N)=O)[C@H](C)CC)[C@H](C)CC)C[C@H](C)O)C[C@H](C)O)[C@H](C)CC)[C@H](C)CC)C[C@H](C)O)C[C@H](C)O)[C@H](C)CC [Compound 78, Nbr-Nbr-Nsh-Nsh-Nbr-Nbr-Nsh-Nsh-Nbr-Nbr]	15.0% (ν/ν)	–
CCC(C)NCC(=O)N(CC(=O)N(CC(=O)N(CC(=O)N(CC(=O)N(CC(=O)N(CC(=O)N(CC(=O)N(CC(=O)N(CC(=O)N(CC(=O)N(CC(=O)N(CC(=O)N(CC(=O)N(CC(=O)N(CC(=O)N(CC(=O)N(CC(N)=O)C(C)CC)C(C)CC)CC(C)O)CC(C)O)C(C)CC)C(C)CC)CC(C)O)CC(C)O)C(C)CC)C(C)CC)CC(C)O)CC(C)O)C(C)CC)C(C)CC)CC(C)O)CC(C)O)C(C)CC (stereo not drawn) [Compound 84, Nsb-Nsb-Nhp-Nhp-Nsb-Nsb-Nhp-Nhp-Nsb-Nsb-Nhp-Nhp-Nsb-Nsb-Nhp-Nhp-Nsb-Nsb]	12.5% (ν/ν)	required significantly less EG in order to permit vitrification
